Measurements reported in patent US20260256870A1, “SKIN COMPOSITION” (Eaderm Co., Ltd., priority 2019, published 2026).

Experiments:
[1] = test system: skin damage induced by erlotinib; test: Improvement of skin damage caused by erlotinib administration, TEWL (Example 10); assay type: in vivo, C57BL6N mice; settings: 200 μM applied on the back once a day, five times a week; 7 weeks old or 6 months old mice; day 7 / day 12 (FIG. 19)
Procedure: Female […] mice (7 weeks old or 6 months old) were acclimatized to the experimental environment, and then hair was removed from their back under anesthesia. […] The control non-administered group received the 0.5% methylcellulose solution of the solvent in the same way. The control group applied with the solvent and the group applied with 200 μM apocynin received an aqueous solution of each preparation once a day, five times a week on the back. To the control solvent application group the solvent (50% ethanol/PBS) of apocynin was similarly applied.

[2] = test system: upper cervical-dorsal skin of aged mice; test: Irritant skin disorder (dry eczema and alopecia) model induced by 100% ethanol in aged mice; assay type: in vivo; settings: continuously applied, aged mice (FIG. 20)
From the text: In the irritant skin disorder (dry eczema and alopecia) model induced by a high concentration of ethanol (100%) in the upper cervical-dorsal skin of aged mice, a substance (apocynin) that promotes the cell competitive ability of epidermal stem cells was continuously applied.

[3] = test system: SDS-induced skin roughness; test: Skin roughness induced by 10% SDS in hairless mice (Examples 16, 17); assay type: in vivo, hairless mice (HOS: HR-1)
From the text: Using a skin irritation model induced by a 10% sodium lauryl sulfate (SDS) solution (a test that serves as a standard for chemical-induced skin damage), the present inventors administered a substance that promotes the competitive self-renewal ability of epidermal stem cells (apocynin) and evaluated the effect of the skin roughness-preventing or -ameliorating agent in improving skin roughness. After acclimation of hairless mice (HOS: HR-1) to the experimental environment, the mice were divided into the three groups below, so that the body weight values were nearly uniform. • SDS non-treated group (n=2) • SDS treatment+solvent application group (n=4) • SDS treatment+200 μM apocynin application group (n=4) On the back of hairless mice, a cotton ball soaked in 500 μL of 10% SDS solution (dissolved in 70% ethanol) was applied for 30 min on days 1, 2, 3, and 4. Apocynin was applied to the back every day from the day before the experiment until day 4. For each group of mice on the third day after the start of the experiment, TEWL was measured at specific sites on the back (two sites on the left side and right side symmetrically from the center of the spine) as described above. On the eighth day, the images were taken by PRIMOS-CR (Canfield Scientific, Inc., Integral Corporation), a high-resolution 3D image analysis system. […] Using a skin irritation model induced by 10% sodium lauryl sulfate (SDS) solution, the present inventors administered a substance that promotes the competitive self-renewal ability of epidermal stem cells (ebselen) and evaluated the effect of the skin roughness-preventing or -ameliorating agent in improving skin roughness. […] For each group of mice on the eighth day after the start of the experiment, TEWL was measured at specific sites on the back (two sites on the left side and right side symmetrically from the center of the spine) as described above. […]

[4] = eighth day, surface of the back, compared to the solvent-applied control group

Compound: COc1cc(C(C)=O)ccc1O [Apocynin]
- TEWL under erlotinib administration [1]: significantly decreased
- skin damage [2]: significantly reduced
- TEWL on the back ([3]; 200 μM apocynin, third day, compared to the solvent-applied control group (FIG. 28)): significantly lower
- Ra (arithmetic mean roughness) [3, 4]: significantly reduced
- Rz (ten-point average roughness) [3, 4]: significantly reduced
